Where two headings read alike, the source gives them in different places.

The target of series [1] is T1, WNV MTase (West Nile virus, UniProt Q9Q6P4).
T1 construct: containing the N-terminal 300, 266, 265, and 272 amino acids of NS5 protein, respectively; made in house
T1 sequence (Q9Q6P4 2529-2794 limits assumed): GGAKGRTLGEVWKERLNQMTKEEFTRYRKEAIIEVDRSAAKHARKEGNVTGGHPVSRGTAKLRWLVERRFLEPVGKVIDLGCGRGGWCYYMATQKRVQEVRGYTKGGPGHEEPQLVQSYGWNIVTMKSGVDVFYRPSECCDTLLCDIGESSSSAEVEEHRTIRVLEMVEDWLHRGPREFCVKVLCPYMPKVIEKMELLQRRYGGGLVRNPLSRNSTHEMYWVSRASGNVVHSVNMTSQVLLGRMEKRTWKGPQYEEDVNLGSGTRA
Description: biochemical. The class given is biochemical.

For series [2], the target named is T1, WNV MTase. The experiment in a line: biochemical.
Series [3] in a line: MTT cell proliferation cytotoxicity assay. Format: cell-based. The note with it: hamster; BHK-21 cells, MTT, 42 hours. On the procedure: (§1) Cell-based assays were next performed to evaluate the biological activities of the selected compounds. The cytotoxicity of these compounds was first evaluated by using a MTT cell proliferation assay with a BHK-21 cell line (Table 1, fig 5), as we described previously. […] Therefore, these compounds were further investigated for their in vitro antiviral efficacy.
(§2) Cytotoxicity was measured using BHK-21 cells by a MTT cell proliferation assay using the 3-(4,5-dimethylthiazol-2-yl)-2,5-diphenyl tetrazolium bromide method (ATCC), as described previously.

The next series concerns BHK-21 cells. Description: MTT cell proliferation cytotoxicity assay. The class given is cell-based. The note with it: for CC50 values times higher than IC50 values: BHK-21 CC50 versus in vitro IC50; for CC50: BHK-21 cells, MTT, 42 hours. The method, then: as §1, §2
A further series deals with WNV. Description: Viral titer reduction assay. The note with it: for Inhibition of the WNV titer: highest concentration tested (200 μM).
Series [4] concerns the target T2, DENV2 MTase (Dengue virus type 2, UniProt P14340).
T2 construct: containing the N-terminal 300, 266, 265, and 272 amino acids of NS5 protein, respectively; made in house
T2 sequence (P14340 2493-2755 limits assumed): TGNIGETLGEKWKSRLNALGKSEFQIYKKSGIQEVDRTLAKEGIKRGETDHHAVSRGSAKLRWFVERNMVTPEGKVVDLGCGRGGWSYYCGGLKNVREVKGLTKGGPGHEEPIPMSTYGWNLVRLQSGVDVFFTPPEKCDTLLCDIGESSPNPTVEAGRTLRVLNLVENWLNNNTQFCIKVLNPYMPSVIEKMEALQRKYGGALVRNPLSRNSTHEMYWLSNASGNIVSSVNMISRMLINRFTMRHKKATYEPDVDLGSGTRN
Format: biochemical. The note with it: read-out: IC50 N7.

The target in series [5] is T2, DENV2 MTase. Format: biochemical. Conditions: read-out: IC50 2’-O.
In series [6] the target is T3, DENV3 MTase (Dengue virus type 3, UniProt Q6YMS4).
T3 construct: containing the N-terminal 300, 266, 265, and 272 amino acids of NS5 protein, respectively; made in house
The class given is biochemical. Conditions: read-out: IC50 N7.

The target in series [7] is T3, DENV3 MTase. Format: biochemical. The note with it: read-out: IC50 2’-O.
The target in series [8] is T4, YFV MTase (Yellow fever virus, UniProt P03314). The class given is biochemical. The note with it: read-out: IC50 N7.
Series [9] addresses T4, YFV MTase. Format: biochemical. The note with it: read-out: IC50 2’-O.

T3 sequence (Q6YMS4 2492-2753): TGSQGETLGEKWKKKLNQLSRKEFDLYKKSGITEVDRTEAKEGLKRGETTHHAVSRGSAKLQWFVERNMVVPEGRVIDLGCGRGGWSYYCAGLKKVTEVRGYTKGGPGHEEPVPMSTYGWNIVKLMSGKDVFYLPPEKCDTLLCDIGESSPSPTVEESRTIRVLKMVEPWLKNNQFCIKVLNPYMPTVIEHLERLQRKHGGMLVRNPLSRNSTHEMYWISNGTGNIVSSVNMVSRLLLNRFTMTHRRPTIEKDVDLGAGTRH
T4 sequence (P03314 2507-2771 limits assumed): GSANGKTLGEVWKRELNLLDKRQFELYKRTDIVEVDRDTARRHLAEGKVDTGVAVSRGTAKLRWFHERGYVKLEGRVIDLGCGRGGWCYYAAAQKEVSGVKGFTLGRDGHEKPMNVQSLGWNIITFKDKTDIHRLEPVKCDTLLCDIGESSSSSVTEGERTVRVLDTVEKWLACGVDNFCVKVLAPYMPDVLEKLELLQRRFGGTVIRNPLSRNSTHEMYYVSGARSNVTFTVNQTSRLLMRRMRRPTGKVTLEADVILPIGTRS

As usually defined, the IC50 is the point on the concentration scale where inhibition reaches its midpoint. What is called CC50 is the concentration giving 50% cytotoxicity. The low end stands for harm at low concentration, the high end for better tolerance by the cells. What is called EC50 is the concentration at which the effect is half-maximal. For the compound `O=C1CN2CCN(CC2)CC(=O)Nc2ccc(cc2)S(=O)(=O)c2ccc(cc2)NC(=O)CN2CCN(CC2)CC(=O)Nc2ccc(cc2)S(=O)(=O)c2ccc(cc2)N1` [NSC 36806], the IC50 against WNV MTase [1] (IC50 N7 No CHAPS) is 39 µM; against WNV MTase [1] (IC50 N7 with CHAPS), 35.5 µM; against WNV MTase [2] it was more than 300 µM. Moreover, it took 362 µM to reach half-maximal cytotoxicity in series [3] (CC50 at 42 h). For the same compound, the “CC50 values times higher than IC50 values” in the series on BHK-21 cells is reported as approximately 10. This compound also displayed an EC50 with WNV (West Nile virus, 42 h) of more than 200 µM. For the same compound, the “Inhibition of the WNV titer” value with WNV is reported as “did not inhibit the WNV titer”.
For `O=C1c2cc([N+](=O)[O-])ccc2-c2ccc3c4ccc5c6c(ccc(c7ccc1c2c73)c64)C(=O)c1cc([N+](=O)[O-])ccc1-5` [NSC 51535], the IC50 was 3.9 µM on WNV MTase [1] (read-out: IC50 N7 No CHAPS) and 5.6 µM on WNV MTase [2] (read-out: IC50 2’-O with CHAPS). Moreover, in [3], half-maximal cytotoxicity (CC50 at 42 h) was put at 5.7 µM.
`O=C1c2ccccc2C(=O)c2c1ccc(N1C(=O)c3ccccc3C1=O)c2-c1c(N2C(=O)c3ccccc3C2=O)ccc2c1C(=O)c1ccccc1C2=O` [NSC 115448]: the IC50 on WNV MTase [1] (IC50 N7 No CHAPS) stood at 15.7 µM; against WNV MTase [1] (IC50 N7 with CHAPS) it was 225 µM; against WNV MTase [2], 16.6 µM. Besides, the CC50 at 42 h in [3] is 155 µM.
`O=c1c2ccccc2c2ccccc2c(=O)n1-c1cc2c3ccccc3ccc2c2ccccc12` [NSC 128609]: the half-maximal inhibitory concentration (IC50) against WNV MTase [1] (IC50 N7 No CHAPS) was 40 µM; on WNV MTase [2] it was 101 µM. This compound also showed a CC50 at 42 h in series [3] of 192 µM.
`COc1ccc2cc1Oc1ccc(cc1)CC1c3c(cc(OC)c4c3Oc3cc5c(cc3O4)CCNC5C2)CCN1C` (stereo not drawn) [NSC 181486]: the values for the IC50 against WNV MTase [1] (IC50 N7 No CHAPS), against WNV MTase [1] (IC50 N7 with CHAPS) and at WNV MTase [2] were 25.9 µM, 34.7 µM and more than 300 µM, respectively. In addition, the CC50 at 42 h in series [3] turned out to be 4.8 µM.
As to `Cc1ccc(NC(=O)c2cc3ccccc3cc2O)c(C)c1.Cc1ccc(NC(=O)c2cc3ccccc3cc2O)c(C)c1.[Ni]` [NSC 306698], the IC50 at WNV MTase [1] (read-out: IC50 N7 No CHAPS) was 45 µM; on WNV MTase [2] (read-out: IC50 2’-O with CHAPS), 49.1 µM. Also, the CC50 with BHK-21 cells was found to be 32 µM.
Consider `Cc1nn(-c2ccc(S(=O)(=O)[O-])cc2)c([O-])c1N=Nc1ccc(-c2ccc(N=Nc3ccc4c(S(=O)(=O)[O-])cc(S(=O)(=O)[O-])c(N)c4c3[O-])c([O-])c2)cc1[O-].[Cu+2].[Cu+2].[H+].[H+].[H+]` [NSC 306711], for which the IC50 is 0.87 µM at WNV MTase [1] (read-out: IC50 N7 No CHAPS); 2.3 µM at WNV MTase [1] (read-out: IC50 N7 with CHAPS); 4.3 µM at WNV MTase [2] (read-out: IC50 2’-O with CHAPS); 5.3 µM at DENV2 MTase [4]; 6.9 µM on DENV2 MTase [5]; 36 µM at DENV3 MTase [6]. For the same compound, the IC50 on DENV3 MTase [7] is 4.7 µM; at YFV MTase [8] it was 1.2 µM; at YFV MTase [9], 1.1 µM. For the same compound, in the series on BHK-21 cells, the “CC50 values times higher than IC50 values” was approximately 10. Moreover, the midpoint of cytotoxicity in the series with BHK-21 cells, the CC50, lay at 332 µM. For the same compound, in the series on WNV (BHK cells infected with WNV, MOI 0.1, 42 hours post-infection, plaque assay on Vero cells), the EC50 turned out to be 1 µM.
Regarding `CN1CCN(c2ccc3[nH]c(-c4ccc5[nH]c(-c6ccc(O)cc6)nc5c4)nc3c2)CC1` [NSC 322921], the results for the IC50 against WNV MTase [1] (IC50 N7 No CHAPS), against WNV MTase [1] (IC50 N7 with CHAPS) and against WNV MTase [2] were 29.9 µM, 26.5 µM and more than 300 µM, respectively. Moreover, in series [3], the CC50 at 42 h is more than 500 µM. Besides, the “CC50 values times higher than IC50 values” in the series with BHK-21 cells is reported as approximately 10. For the same compound, the EC50 in the series on WNV (West Nile virus, 42 h) is more than 200 µM. Moreover, the “Inhibition of the WNV titer” value with WNV is “did not inhibit the WNV titer”.
For the compound `Ic1ccc2c(c1)N(c1ccccc1)c1cc(Nc3ccc4c(c3)N(c3ccccc3)c3cc(I)ccc3N4)ccc1N2` [NSC 402959], the IC50 was found to be 9.8 µM on WNV MTase [1] (read-out: IC50 N7 No CHAPS), 30.8 µM at WNV MTase [1] (read-out: IC50 N7 with CHAPS) and 6.2 µM on WNV MTase [2] (read-out: IC50 2’-O with CHAPS). For the same compound, the midpoint of cytotoxicity in series [3], the CC50 at 42 h, lay at 14.6 µM.
With `CC1=C(Nc2c(C)cc(O)cc2O)C(=O)C=c2oc3c(c21)C(C)=C(Nc1c(C)cc(O)cc1O)C(=O)C=3` [NSC 610930], the IC50 at WNV MTase [1] (IC50 N7 No CHAPS) amounted to 4.2 µM; against WNV MTase [1] (IC50 N7 with CHAPS) it was 18.2 µM; against WNV MTase [2], 5.6 µM. The compound further had a CC50 at 42 h in series [3] of 117 µM. In addition, the “CC50 values times higher than IC50 values” in the series on BHK-21 cells is approximately 10. Also, the EC50 in the series on WNV (West Nile virus, 42 h) is 12.6 µM.
Consider `Nc1ncnc2c1ncn2[C@@H]1O[C@H](C[C@@H](N)CC[C@H](N)C(=O)O)[C@@H](O)[C@H]1O` [SIN, sinefungin, reference compound], for which the “Inhibition of the N7 activity of the WNV MTase” value on WNV MTase [1] is ~ 80%.

For the origin of these results see article PMC4476580, “Novel Broad Spectrum Inhibitors Targeting the Flavivirus Methyltransferase” (PLoS ONE, 2015).
